Columns and labels:
[1] = test system: giant foxtail; assay: Test B pre/postemergence giant foxtail; assay type: in vivo, Setaria faberii
How it was run: (§1)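 Herbicidal effect was estimated by eye on a ten-point control scale after plants spent twelve to sixteen days in a greenhouse following soil or foliar treatment. Foliar sprays targeted plants at one to four leaves; all doses were formulated in a non-phytotoxic solvent with surfactant.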

[2] = test system: cocklebur; assay: Test B pre/postemergence cocklebur; assay type: in vivo, Xanthium strumarium
How it was run: as §1

[3] = test system: wild oat; assay: Test B pre/postemergence wild oat; assay type: in vivo, Avena fatua
How it was run: as §1

[4] = test system: velvetleaf; assay: Test B pre/postemergence velvetleaf; assay type: in vivo, Abutilon theophrasti
How it was run: as §1

[5] = test system: morningglory; assay: Test B pre/postemergence morningglory; assay type: in vivo, Ipomoea hederacea
How it was run: as §1

[6] = test system: pigweed; assay: Test B pre/postemergence pigweed; assay type: in vivo, Amaranthus retroflexus
How it was run: as §1

[7] = test system: purple nutsedge; assay: Test B pre/postemergence purple nutsedge; assay type: in vivo, Cyperus rotundus
How it was run: as §1

[8] = test system: bedstraw; assay: Test B pre/postemergence bedstraw; assay type: in vivo, Galium aparine; settings: Rate 250 g/ha, Postemergence; scale of 0 to 10 where 0 is no effect and 10 is complete control
How it was run: as §1

[9] = test system: blackgrass; assay: Test B pre/postemergence blackgrass; assay type: in vivo, Alopecurus myosuroides
How it was run: as §1

[10] = test system: surinam grass; assay: Test B pre/postemergence surinam grass; assay type: in vivo, Brachiaria decumbens
How it was run: as §1

[11] = test system: sugar beet; assay: Test B pre/postemergence sugar beet; assay type: in vivo, Beta vulgaris
How it was run: as §1

[12] = test system: wheat; assay: Test B pre/postemergence wheat; assay type: in vivo, Triticum aestivum
How it was run: as §1

[13] = test system: soybean; assay: Test B pre/postemergence soybean; assay type: in vivo, Glycine max
How it was run: as §1

[14] = test system: crabgrass; assay: Test B pre/postemergence crabgrass; assay type: in vivo, Digitaria sanguinalis
How it was run: as §1

[15] = test system: rape; assay: Test B pre/postemergence rape; assay type: in vivo, Brassica napus
How it was run: as §1

[16] = test system: corn; assay: Test B pre/postemergence corn; assay type: in vivo, Zea mays
How it was run: as §1

[17] = Postemergence, Rate 62 g/ha, scale of 0 to 10, 0 is no effect, 10 is complete control
[18] = Postemergence, Rate 125 g/ha, scale 0 to 10, 0 is no effect, 10 is complete control
[19] = Postemergence, Rate 500 g/ha, scale 0 to 10, 0 is no effect, 10 is complete control
[20] = Preemergence, Rate 62 g/ha, scale of 0 to 10 where 0 is no effect and 10 is complete control
[21] = Preemergence, Rate 125 g/ha, scale 0 to 10, 0 is no effect, 10 is complete control
[22] = Preemergence, Rate 500 g/ha, scale of 0 to 10 where 0 is no effect and 10 is complete control
[23] = Rate 250 g/ha, Postemergence, scale of 0 to 10 where 0 is no effect and 10 is complete control

## CCC(=O)Cn1c(=O)on(C(=O)N(c2ccc(F)cc2F)C(C)C)c1=O [Compound 524]
[1]; [17]
  Giant foxtail plant response rating: 4
[1]; [18]
  Giant foxtail plant response rating: 8
[1]; [19]
  Plant response rating, Giant foxtail: 9
[1]; [20]
  Plant response rating, Giant foxtail: 9
[1]; [21]
  Giant foxtail plant response rating: 9
[1]; Preemergence, Rate 250 g/ha
  Giant foxtail plant response rating (0 to 10 scale): 9
[1]; [22]
  Giant foxtail plant response rating: 10
[1]; [23]
  Plant response rating, Giant foxtail: 8
[2]; [17]
  Cocklebur plant response rating: 0
[2]; [18]
  Cocklebur plant response rating: 0
[2]; [19]
  Plant response rating, Cocklebur: 3
[2]; [20]
  Plant response rating, Cocklebur: 0
[2]; [21]
  Cocklebur plant response rating: 0
[2]; Preemergence, Rate 250 g/ha
  Cocklebur plant response rating (0 to 10 scale): 0
[2]; [22]
  Cocklebur plant response rating: 2
[2]; [23]
  Plant response rating, Cocklebur: 0
[3]; [17]
  Wild oats plant response rating: 0
[3]; [18]
  Wild oats plant response rating: 0
[3]; [19]
  Plant response rating, Wild oats: 5
[3]; [20]
  Plant response rating, Wild oats: 7
[3]; [21]
  Wild oats plant response rating: 9
[3]; Preemergence, Rate 250 g/ha
  Wild oats plant response rating (0 to 10 scale): 8
[3]; [23]
  Plant response rating, Wild oats: 0
[4]; [17]
  Velvetleaf plant response rating: 0
[4]; [18]
  Velvetleaf plant response rating: 0
[4]; [19]
  Plant response rating, Velvetleaf: 6
[4]; [20]
  Plant response rating, Velvetleaf: 0
[4]; [21]
  Velvetleaf plant response rating: 3
[4]; Preemergence, Rate 250 g/ha
  Velvetleaf plant response rating (0 to 10 scale): 4
[4]; [22]
  Velvetleaf plant response rating: 4
[4]; [23]
  Plant response rating, Velvetleaf: 5
[5]; [17]
  Morningglory plant response rating: 0
[5]; [18]
  Morningglory plant response rating: 2
[5]; [19]
  Plant response rating, Morningglory: 2
[5]; [20]
  Plant response rating, Morningglory: 0
[5]; [21]
  Morningglory plant response rating: 0
[5]; Preemergence, Rate 250 g/ha
  Morningglory plant response rating (0 to 10 scale): 2
[5]; [22]
  Morningglory plant response rating: 2
[5]; [23]
  Plant response rating, Morningglory: 2
[6]; [17]
  Redroot pigweed plant response rating: 0
[6]; [18]
  Redroot pigweed plant response rating: 0
[6]; [19]
  Plant response rating, Redroot pigweed: 0
[6]; [20]
  Plant response rating, Redroot pigweed: 8
[6]; [21]
  Redroot pigweed plant response rating: 8
[6]; Preemergence, Rate 250 g/ha
  Redroot pigweed plant response rating (0 to 10 scale): 8
[6]; [23]
  Plant response rating, Redroot pigweed: 0
[7]; [19]
  Plant response rating, Nutsedge: 0
[7]; [20]
  Plant response rating, Nutsedge: 0
[7]; [21]
  Nutsedge plant response rating: 0
[7]; Preemergence, Rate 250 g/ha
  Nutsedge plant response rating (0 to 10 scale): 0
[7]; [22]
  Nutsedge plant response rating: 4
[8]
  Plant response rating, Bedstraw: 9
[9]; [17]
  Blackgrass plant response rating: 0
[9]; [18]
  Blackgrass plant response rating: 2
[9]; [19]
  Plant response rating, Blackgrass: 8
[9]; [20]
  Plant response rating, Blackgrass: 4
[9]; [21]
  Blackgrass plant response rating: 4
[9]; Preemergence, Rate 250 g/ha
  Blackgrass plant response rating (0 to 10 scale): 4
[9]; [23]
  Plant response rating, Blackgrass: 9
[10]; [17]
  B. signalgrass plant response rating: 0
[10]; [18]
  B. signalgrass plant response rating: 0
[10]; [19]
  Plant response rating, B. signalgrass: 9
[10]; [20]
  Plant response rating, B. signalgrass: 0
[10]; [21]
  B. signalgrass plant response rating: 0
[10]; Preemergence, Rate 250 g/ha
  B. signalgrass plant response rating (0 to 10 scale, 0 is no effect, 10 is complete control): 2
[10]; [23]
  Plant response rating, B. signalgrass: 2
[11]; [17]
  Sugarbeets plant response rating: 0
[11]; [18]
  Sugarbeets plant response rating: 0
[11]; [19]
  Plant response rating, Sugarbeets: 0
[11]; [20]
  Plant response rating, Sugarbeets: 0
[11]; [21]
  Sugarbeets plant response rating: 3
[11]; Preemergence, Rate 250 g/ha
  Sugarbeets plant response rating (0 to 10 scale): 6
[11]; [23]
  Plant response rating, Sugarbeets: 0
[12]; [17]
  Wheat plant response rating: 0
[12]; [18]
  Wheat plant response rating: 0
[12]; [19]
  Plant response rating, Wheat: 5
[12]; [20]
  Plant response rating, Wheat: 0
[12]; [21]
  Wheat plant response rating: 5
[12]; Preemergence, Rate 250 g/ha
  Wheat plant response rating (0 to 10 scale): 7
[12]; [23]
  Plant response rating, Wheat: 0
[13]; [17]
  Soybean plant response rating: 3
[13]; [19]
  Plant response rating, Soybean: 4
[13]; [20]
  Plant response rating, Soybean: 0
[13]; [21]
  Soybean plant response rating: 0
[13]; Preemergence, Rate 250 g/ha
  Soybean plant response rating (0 to 10 scale): 0
[13]; [22]
  Soybean plant response rating: 0
[13]; [23]
  Plant response rating, Soybean: 3
[14]; [17]
  Crabgrass plant response rating: 3
[14]; [18]
  Crabgrass plant response rating: 8
[14]; [19]
  Plant response rating, Crabgrass: 9
[14]; [20]
  Plant response rating, Crabgrass: 9
[14]; [21]
  Crabgrass plant response rating: 10
[14]; Preemergence, Rate 250 g/ha
  Crabgrass plant response rating (0 to 10 scale): 9
[14]; [22]
  Crabgrass plant response rating: 10
[14]; [23]
  Plant response rating, Crabgrass: 8
[15]; [17]
  Rape plant response rating: 0
[15]; [18]
  Rape plant response rating: 0
[15]; [19]
  Plant response rating, Rape: 3
[15]; [20]
  Plant response rating, Rape: 2
[15]; [21]
  Rape plant response rating: 2
[15]; Preemergence, Rate 250 g/ha
  Rape plant response rating (0 to 10 scale): 7
[15]; [23]
  Plant response rating, Rape: 0
[16]; [17]
  Corn plant response rating: 0
[16]; [18]
  Corn plant response rating: 2
[16]; [19]
  Plant response rating, Corn: 5
[16]; [20]
  Plant response rating, Corn: 0
[16]; [21]
  Corn plant response rating: 0
[16]; Preemergence, Rate 250 g/ha
  Corn plant response rating (0 to 10 scale): 7
[16]; [22]
  Corn plant response rating: 9
[16]; [23]
  Plant response rating, Corn: 3

— US6737383B1, “Herbicidal oxadiazolidines” (priority 1999, dated 2004)
